Measured values published in paper PMC8197361, “Assessing the Interactions of Statins with Human Adenylate Kinase Isoenzyme 1: Fluorescence and Enzyme Kinetic Studies” (International Journal of Molecular Sciences, 2021).
Where two headings read alike, the source gives them in different places.

Legend:
[1] = target: T1, human adenylate kinase isoenzyme 1 (hAK1) (Homo sapiens, UniProt P00568); assay: Fluorescence quenching of hAK1 intrinsic (tyrosine) fluorescence by statins, one-site binding model; conditions: read-out: Kd (dissociation constant)
T1 construct: thrombin recognition site (C); 6xHis-tag (C); made in house; host or cells: E. coli BL21-CodonPlus(DE3)-RIL, pET-3a(+)
T1 sequence (P00568 1-194): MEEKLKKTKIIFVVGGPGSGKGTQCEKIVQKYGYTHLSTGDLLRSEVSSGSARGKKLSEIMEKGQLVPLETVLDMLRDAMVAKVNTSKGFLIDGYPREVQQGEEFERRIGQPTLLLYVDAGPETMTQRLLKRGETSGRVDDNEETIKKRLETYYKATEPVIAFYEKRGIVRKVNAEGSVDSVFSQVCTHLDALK
Description: The fluorescence emission spectra and plots of F versus [L] for the hAK1 quenching process at 20 and 25 °C are presented in Figure S2, while the emission spectra of hAK1, buffer (HEPES-NaOH) and five statins are shown in Figure S3. To analyze the quenching data upon the formation of an hAK1-statin complex, we used the following equation, which assumes a 1:1 stoichiomery:(1) PL/Pt=Pt+La+Kd−(Pt+La+Kd)^2−4PtLa/2Pt where Kd is the dissociation constant, [P]t is the concentration of protein, [L]a is the total concentration of the ligand, and [PL] it the concentration of protein-ligand complex.
The obtained fluorescence data were fitted to the one-site binding model with an applied nonlinear least-squares regression using OriginPro software (Figure 3).
Measurements were recorded in the range of 300–600 nm after excitation at λ = 289 nm at 20, 25 and 37 °C. Stock solutions of all statins were prepared in ethanol. The samples were prepared in 2 mL Eppendorf tubes and contained hAK1 at a concentration of 2 µM alone or with a statin at the following concentrations: 2, 4, 8, 16, 24, 32 and 40 µM, and 25 mM HEPES-NaOH (pH 7.5) was added to each tube, up to 2 mL. Then, the sample was transferred into the quartz cell and the spectrum was recorded. The emission spectra were measured three times. The fluorescence spectra of hAK1 in presence of statins were corrected for the inner filter effect using the following equation [63, 64]:(2) Fcor=Fobs∗ 10^AλEx+AλEm/2 where Fcor is the corrected fluorescence intensity and Fobs is the observed fluorescence intensity, AλEx is the absorption value at the excitation wavelength and AλEm is the absorption value at the emission wavelength. The fluorescence data were fitted by applying a nonlinear least-squares regression using OriginPro software Version 2016 (OriginLab Corporation, Northampton, MA, USA).

[2] = target: T1, human adenylate kinase isoenzyme 1 (hAK1); assay: Adenylate kinase activity assay and enzyme inhibition studies (RP-HPLC), hAK1; assay type: biochemical; conditions: for IC50: 37 °C
Description: The reaction mixture for ATP synthesis contained 2 mM MgCl2, 1 mM ADP in 10 mM HEPES-NaOH, pH 7.5. The reaction mixture for ADP synthesis was composed of 2 mM MgCl2, 1 mM AMP and ATP each, in 10 mM HEPES-NaOH, pH 7.5. […] Studies on the statin inhibition mode were performed using varying concentrations of ADP as a substrate (from 0.2 to 1.0 mM) at different fixed concentrations of statin (0, 150, 300 and 450 µM). Adenylate kinase activity measurement was carried out in 50 μL of the reaction mixture for 5–10 min at 37 °C. The reaction was terminated by the addition of 50 μL of 1 M HClO4. After 5 min incubation on ice, samples were centrifuged at 15,000× g for 5 min at 4 °C. Then, 50 μL of the obtained supernatant was neutralized with 25 μL of 1 M KOH and delipidated by shaking with n-heptane (1:5 v/v). The samples were centrifuged as above, and subsequently, adenine nucleotide concentrations were analyzed by the RP-HPLC (reversed-phase high-performance liquid chromatography) method as previously described. Briefly, purine nucleotides were separated in isocratic conditions on the Chromolith Performance RP-18e column, 4.6 mm × 100 mm (Merck, Darmstadt, Germany) using the Shimadzu Prominence LC (Kyoto, Japan) equipped with pump (LC-20AD), autosampler (SIL-20AC), column thermostat (CTO-10AS) and photodiode array detector (SPD-M20A). HPLC system control, data acquisitions and processing were done with LabSolutions software. The samples were eluted using 0.1 M phosphate buffer, pH 7.0 containing 25 mM TBA, 5 mM EDTA and 3% methanol. ADP and ATP produced during the AK-catalyzed reaction were detected at λ = 260 nm based on the retention times of standard nucleotide solutions. The AK enzymatic activity was determined by quantifying the product concentration using correlation coefficients calculated from ADP and ATP calibration curves. One unit (U) of AK activity is defined as the amount of the enzyme that catalyzes the production of 1.0 μmole of ADP or ATP per minute at 37 °C, under the assay conditions specified above. The specific activity of AK was calculated as the number of units per milligram of protein. The Lineweaver–Burk plot was used to present enzyme-substrate reactions with and without statin, where the y-intercept is equivalent to the inverse of Vmax and the x-intercept represents −1/KM. The calculation of the IC50 values was performed using GraphPad Prism 8 Software (San Diego, CA, USA).

[3] = tested on: serum AK; parameters: method as in PMID 18576946; conditions: 0.5 mM AMP and 0.8 mM ATP as substrates; cited from earlier work
[4] = tested on: endothelial cell-surface AK; parameters: method as in PMID 18576946; conditions: 0.5 mM AMP and 0.8 mM ATP as substrates; cited from earlier work
[5] = target: T2, adenylate kinase from Geobacillus stearothermophilus (AKst) (Geobacillus stearothermophilus, UniProt P27142); assay: Adenylate kinase activity assay in the presence of statins, AKst (long type AK); assay type: biochemical; conditions: same drug concentration range as in hAK1 experiments; ADP or ATP and AMP as substrates, 1 mM each
T2 construct: made in house; host or cells: E. coli BL21-CodonPlus(DE3)-RIL, pET-3a(+)
Description: Next, we measured the enzymatic activity of AKst in the presence of RVS and SVS at the same drug concentration range as in the hAK1 experiments (Figure S4). […] This region has limited accessibility in AKst due to the presence of a markedly bigger LID domain as compared to hAK1, which may consequently prevent the binding of statins to AKst.
The reaction mixture for ATP synthesis contained 2 mM MgCl2, 1 mM ADP in 10 mM HEPES-NaOH, pH 7.5. The reaction mixture for ADP synthesis was composed of 2 mM MgCl2, 1 mM AMP and ATP each, in 10 mM HEPES-NaOH, pH 7.5. […] Studies on the statin inhibition mode were performed using varying concentrations of ADP as a substrate (from 0.2 to 1.0 mM) at different fixed concentrations of statin (0, 150, 300 and 450 µM). […] The samples were centrifuged as above, and subsequently, adenine nucleotide concentrations were analyzed by the RP-HPLC (reversed-phase high-performance liquid chromatography) method as previously described. […] ADP and ATP produced during the AK-catalyzed reaction were detected at λ = 260 nm based on the retention times of standard nucleotide solutions. The AK enzymatic activity was determined by quantifying the product concentration using correlation coefficients calculated from ADP and ATP calibration curves. […] The specific activity of AK was calculated as the number of units per milligram of protein. […]

[6] = 20 °C, 2 µM hAK1, 25 mM HEPES-NaOH pH 7.5
[7] = 25 °C, 2 µM hAK1, 25 mM HEPES-NaOH pH 7.5
[8] = 37 °C, 2 µM hAK1, 25 mM HEPES-NaOH pH 7.5
[9] = 1 mM ADP, ATP synthesis direction, read-out: IC50 (ADP as a Substrate)
[10] = 1 mM AMP and ATP each, ADP synthesis direction, read-out: IC50 (ATP + AMP as Substrates)

T2 sequence (P27142 whole entry): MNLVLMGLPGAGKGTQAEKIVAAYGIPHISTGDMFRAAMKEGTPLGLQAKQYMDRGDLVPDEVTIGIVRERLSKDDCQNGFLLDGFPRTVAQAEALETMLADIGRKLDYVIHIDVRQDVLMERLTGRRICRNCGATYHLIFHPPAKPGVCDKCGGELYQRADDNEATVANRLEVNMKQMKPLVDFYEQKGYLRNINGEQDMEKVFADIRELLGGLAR

Row | Compound | Kd [1, 6] [µM] | Kd [1, 7] [µM] | Kd [1, 8] [µM] | IC50 [2, 9] [µM] | IC50 [2, 10] [µM] | IC50 ([2]; ADP or ATP + AMP as substrates, read-out: IC50 values in both directions of the hAK1-catalyzed reaction) [µM] | IC50 [3] [µM] | IC50 [4] [µM] | hAK1 inhibition mode (Lineweaver-Burk plot) ([2]; ADP 0.2 to 1.0 mM, fixed statin concentrations 0, 150, 300 and 450 µM) | hAK1 inhibition ([2]; RVS at a concentration above 200 μM) [%] | Effect on the AKst enzymatic activity [5] | Kd ([1]; 37 °C) [µM]
1 | CC(C)c1c(C(=O)Nc2ccccc2)c(-c2ccccc2)c(-c2ccc(F)cc2)n1CC[C@@H](O)C[C@@H](O)CC(=O)O [AVS, Atorvastatin] | 16 ± 2.1 | 27.2 ± 6.8 | 29.5 ± 3.7 | 223 ± 34 | 237 ± 31 | > 200 | – | – | – | – | – | –
2 | Nc1ncnc2c1ncn2[C@@H]1O[C@H](COP(=O)(O)OP(=O)(O)OP(=O)(O)OP(=O)(O)OP(=O)(O)OC[C@H]2O[C@@H](n3cnc4c(N)ncnc43)[C@H](O)[C@@H]2O)[C@@H](O)[C@H]1O [Ap5A, P^1,P^5-di(adenosine-5′)pentaphosphate] | – | – | – | – | – | – | 6.3 | 6 | – | – | – | –
3 | CC(C)n1c(/C=C/C(O)CC(O)CC(=O)O)c(-c2ccc(F)cc2)c2ccccc21 (stereo not drawn) [FVS, Fluvastatin] | 17.4 ± 2 | 23.1 ± 4 | 26.6 ± 5.5 | 126 ± 7 | 156 ± 11 | – | – | – | – | – | – | –
4 | CC[C@H](C)C(=O)O[C@H]1C[C@H](O)C=C2C=C[C@H](C)[C@H](CC[C@@H](O)C[C@@H](O)CC(=O)O)[C@H]21 [PVS, Pravastatin] | 19.4 ± 4.1 | 26.4 ± 6.2 | 28.6 ± 8.2 | 95 ± 19 | 211 ± 33 | – | – | – | – | – | – | –
5 | CC(C)c1nc(N(C)S(C)(=O)=O)nc(-c2ccc(F)cc2)c1/C=C/[C@@H](O)C[C@@H](O)CC(=O)O [RVS, Rosuvastatin] | 9.2 ± 1.5 | 16.8 ± 1.8 | 18.9 ± 3.2 | 166 ± 20 | 89 ± 15 | – | – | – | noncompetitive | 90 | not found any inhibitory effect | –
6 | CCC(C)(C)C(=O)O[C@H]1C[C@@H](C)C=C2C=C[C@H](C)[C@H](CC[C@@H]3C[C@@H](O)CC(=O)O3)[C@H]21 [SVS, Simvastatin] | 6.6 ± 1.2 | 10.9 ± 1.6 | 15.2 ± 2 | 5.5 ± 1.2 | 3.1 ± 0.5 | – | – | – | – | – | not found any inhibitory effect | 15.2 ± 2
